Consider 14 molecules from ChEMBL document CHEMBL3232829, “Synthesis and multitarget biological profiling of a novel family of rhein derivatives as disease-modifying anti-Alzheimer agents” (J Med Chem, 2014).

Calls of active or inactive are those of the source. The rule behind the calls is not given here.

The target of data set [1] is T1, Beta-secretase 1 (Homo sapiens, UniProt P56817). Put plainly: Inhibition of human recombinant BACE1 using methoxycoumarin-Ser-Glu-Val-Asn-Leu-Asp-Ala-Glu-Phe-Lys-dinitrophenyl as substrate preincubated for 1 hr by FRET assay.
Data set [2] concerns the target Amyloid-beta precursor protein (Homo sapiens) (UniProt P05067). Kind of data set: Inhibition of amyloid beta-42 (unknown origin) aggregation assessed as amyloid fibril formation at 10 uM after 24 hrs by thioflavin T fluorescence method.
Data set [3] is described as follows: Permeability of the compound by PAMPA assay. It is filed as physicochemical. To be noted: read-out: permeability.
Data set [4] addresses T1, Beta-secretase 1. Conditions: 5 uM.
Data set [5] has as its target Amyloid-beta precursor protein (Homo sapiens) (UniProt P05067). Put plainly: Inhibition of aggregation of amyloid beta-42 (unknown origin) expressed in Escherichia coli BL21 (DE3) assessed as amyloid fibril formation at 10 uM after 24 hrs by thioflavin S fluorescence method.
In data set [6] the target is Microtubule-associated protein tau (Homo sapiens) (UniProt P10636). Kind of data set: Inhibition of aggregation of tau protein (unknown origin) expressed in Escherichia coli BL21 (DE3) assessed as amyloid fibril formation at 10 uM after 24 hrs by thioflavin S fluorescence method.
For data set [7], the system named is Hippocampus. Put plainly: Neuroprotective activity against amyloid beta-42-induced synaptic failure in C57bl6 mouse hippocampal slices assessed as induction of long-term potentiation at 10 uM after 1 hr by electrophysiology assay relative to control. It is filed as functional.
Data set [8] has as its system Hippocampus. Kind of data set: Neuroprotective activity against amyloid beta-42-induced synaptic failure in C57bl6 mouse hippocampal slices assessed as induction of field excitatory postsynaptic potential at 10 uM after 1 hr by electrophysiology assay relative to control. It is filed as functional.
Data set [9] has as its system Hippocampus. Put plainly: Neuroprotective activity against amyloid beta-42-induced synaptic failure in C57bl6 mouse hippocampal slices assessed as increase of GluA2 protein level at 10 to 100 uM uM after 1 hr by Western blot analysis. It is filed as functional, tissue-based.
In data set [10] the test system is Hippocampus. Kind of data set: Neuroprotective activity against amyloid beta-42-induced synaptic failure in C57bl6 mouse hippocampal slices assessed as increase of PSD95 protein level at 10 to 100 uM uM after 1 hr by Western blot analysis. It is filed as functional, tissue-based.
Data set [11] relates to Hippocampus. Put plainly: Neuroprotective activity against amyloid beta-42-induced synaptic failure in C57bl6 mouse hippocampal slices assessed as increase of VGlut1 protein level at 1 to 100 uM uM after 1 hr by Western blot analysis. It is filed as functional, tissue-based.
For data set [12], the system named is Hippocampus. Kind of data set: Neuroprotective activity against amyloid beta-42-induced synaptic failure in C57bl6 mouse hippocampal slices assessed as increase of SYN protein level at 1 to 100 uM uM after 1 hr by Western blot analysis. It is filed as functional, tissue-based.
The subject of data set [13] is Hippocampus. Put plainly: Neuroprotective activity against amyloid beta-42-induced synaptic failure in C57bl6 mouse hippocampal slices assessed as increase of SYP protein level at 1 to 100 uM uM after 1 hr by Western blot analysis. It is filed as functional, tissue-based.
Data set [14] deals with Mus musculus. Put plainly: Antialzheimer activity in APP-PS1 transgenic 7 month old mouse hippocampus assessed as reduction of dodecamer of amyloid beta level at 2 mg/kg, ip administered 3 times in a week for 4 weeks by immunoblot analysis. It is filed as functional, organism-based. More on the design: dose 2 mg/kg.
In data set [15] the test system is Mus musculus. Put plainly: Antialzheimer activity in APP-PS1 transgenic 11 month old mouse hippocampus assessed as reduction of dodecamer of amyloid beta level at 2 mg/kg, ip administered 3 times in a week for 4 weeks by immunoblot analysis. It is filed as functional, organism-based. More on the design: dose 2 mg/kg.
In data set [16] the test system is Mus musculus. Kind of data set: Antialzheimer activity in APP-PS1 transgenic 7 month old mouse hippocampus assessed as reduction of hexamers of amyloid beta level at 2 mg/kg, ip administered 3 times in a week for 4 weeks by immunoblot analysis. It is filed as functional, organism-based. Also noted: dose 2 mg/kg.
Data set [17] has as its system Mus musculus. Put plainly: Antialzheimer activity in APP-PS1 transgenic 11 month old mouse hippocampus assessed as reduction of hexamers of amyloid beta level at 2 mg/kg, ip administered 3 times in a week for 4 weeks by immunoblot analysis. Also noted: dose 2 mg/kg. It is filed as functional, organism-based.
The subject of data set [18] is Hippocampus. Kind of data set: Neuroprotective activity against amyloid beta-42-induced synaptic failure in C57bl6 mouse hippocampal slices assessed as increase of GluA2 protein level at 1 to 100 uM uM after 1 hr by Western blot analysis. It is filed as functional, tissue-based.
The test system of data set [19] is Hippocampus. Kind of data set: Neuroprotective activity against amyloid beta-42-induced synaptic failure in C57bl6 mouse hippocampal slices assessed as increase of PSD95 protein level at 1 to 100 uM uM after 1 hr by Western blot analysis. It is filed as functional, tissue-based.
The target of a further data set is Cholinesterase (Homo sapiens, UniProt P06276). Put plainly: Inhibition of human serum BChE using butyrylthiocholine iodide as substrate preincubated for 20 mins by Ellman's method.
Data set [20] deals with T1, Beta-secretase 1. Put plainly: Inhibition of human recombinant BACE1 using methoxycoumarin-Ser-Glu-Val-Asn-Leu-Asp-Ala-Glu-Phe-Lys-dinitrophenyl as substrate at 1 uM preincubated for 1 hr by FRET assay.
For a further data set, the target named is Acetylcholinesterase (Homo sapiens, UniProt P22303).
Chain of Acetylcholinesterase (P22303 whole entry): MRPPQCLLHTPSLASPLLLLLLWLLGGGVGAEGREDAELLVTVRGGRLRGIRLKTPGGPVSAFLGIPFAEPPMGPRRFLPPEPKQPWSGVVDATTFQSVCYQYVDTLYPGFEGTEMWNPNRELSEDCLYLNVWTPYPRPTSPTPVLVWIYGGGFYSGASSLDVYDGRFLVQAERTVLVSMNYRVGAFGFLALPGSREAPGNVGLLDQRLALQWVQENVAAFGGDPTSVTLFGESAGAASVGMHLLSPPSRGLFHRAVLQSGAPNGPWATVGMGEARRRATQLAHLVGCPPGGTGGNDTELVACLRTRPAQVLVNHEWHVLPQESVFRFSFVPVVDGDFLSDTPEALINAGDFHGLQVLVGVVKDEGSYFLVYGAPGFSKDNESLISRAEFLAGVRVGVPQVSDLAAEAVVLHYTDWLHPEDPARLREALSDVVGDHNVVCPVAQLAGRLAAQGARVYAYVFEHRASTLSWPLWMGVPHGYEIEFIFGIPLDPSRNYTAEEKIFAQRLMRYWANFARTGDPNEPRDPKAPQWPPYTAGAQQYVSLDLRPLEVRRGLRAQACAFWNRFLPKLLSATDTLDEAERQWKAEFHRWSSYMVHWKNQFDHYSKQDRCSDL

Chain of Cholinesterase (P06276 whole entry): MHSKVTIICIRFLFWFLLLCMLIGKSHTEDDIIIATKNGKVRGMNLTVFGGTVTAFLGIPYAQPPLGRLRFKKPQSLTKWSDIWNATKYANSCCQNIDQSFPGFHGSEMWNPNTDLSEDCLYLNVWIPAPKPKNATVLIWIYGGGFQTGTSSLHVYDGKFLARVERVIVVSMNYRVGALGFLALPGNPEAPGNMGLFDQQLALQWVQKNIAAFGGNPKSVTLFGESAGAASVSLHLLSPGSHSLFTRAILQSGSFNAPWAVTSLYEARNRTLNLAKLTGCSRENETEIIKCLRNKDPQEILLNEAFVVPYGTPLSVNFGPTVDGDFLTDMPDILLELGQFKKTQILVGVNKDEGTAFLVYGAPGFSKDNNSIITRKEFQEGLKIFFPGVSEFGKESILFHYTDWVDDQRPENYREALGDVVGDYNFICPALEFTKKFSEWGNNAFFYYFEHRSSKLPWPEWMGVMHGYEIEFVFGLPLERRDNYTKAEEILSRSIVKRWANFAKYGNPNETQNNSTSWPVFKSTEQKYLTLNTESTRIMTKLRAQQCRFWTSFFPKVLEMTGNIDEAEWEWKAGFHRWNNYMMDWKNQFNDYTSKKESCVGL
Chain of Amyloid-beta precursor protein (Homo sapiens) (P05067 whole entry): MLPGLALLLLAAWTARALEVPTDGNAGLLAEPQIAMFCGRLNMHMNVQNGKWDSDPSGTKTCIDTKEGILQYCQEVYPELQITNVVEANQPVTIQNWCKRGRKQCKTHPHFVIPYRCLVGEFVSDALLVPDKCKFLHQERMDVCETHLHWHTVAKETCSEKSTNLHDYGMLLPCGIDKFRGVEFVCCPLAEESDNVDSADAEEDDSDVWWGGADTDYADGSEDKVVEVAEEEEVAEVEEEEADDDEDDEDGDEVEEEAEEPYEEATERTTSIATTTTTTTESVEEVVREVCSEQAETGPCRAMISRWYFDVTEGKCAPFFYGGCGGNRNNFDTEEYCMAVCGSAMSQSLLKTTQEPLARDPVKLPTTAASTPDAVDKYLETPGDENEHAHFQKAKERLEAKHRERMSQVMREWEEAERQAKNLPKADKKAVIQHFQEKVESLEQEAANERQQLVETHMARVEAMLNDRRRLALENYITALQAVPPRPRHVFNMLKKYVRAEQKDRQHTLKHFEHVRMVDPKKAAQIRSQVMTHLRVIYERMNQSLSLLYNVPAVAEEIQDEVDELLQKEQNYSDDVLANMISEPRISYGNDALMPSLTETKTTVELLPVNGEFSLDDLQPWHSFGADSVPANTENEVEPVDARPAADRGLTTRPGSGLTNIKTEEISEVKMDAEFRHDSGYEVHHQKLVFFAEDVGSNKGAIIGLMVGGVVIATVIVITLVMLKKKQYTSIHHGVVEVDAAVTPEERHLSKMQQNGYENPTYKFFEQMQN
Chain of Microtubule-associated protein tau (Homo sapiens) (P10636 whole entry): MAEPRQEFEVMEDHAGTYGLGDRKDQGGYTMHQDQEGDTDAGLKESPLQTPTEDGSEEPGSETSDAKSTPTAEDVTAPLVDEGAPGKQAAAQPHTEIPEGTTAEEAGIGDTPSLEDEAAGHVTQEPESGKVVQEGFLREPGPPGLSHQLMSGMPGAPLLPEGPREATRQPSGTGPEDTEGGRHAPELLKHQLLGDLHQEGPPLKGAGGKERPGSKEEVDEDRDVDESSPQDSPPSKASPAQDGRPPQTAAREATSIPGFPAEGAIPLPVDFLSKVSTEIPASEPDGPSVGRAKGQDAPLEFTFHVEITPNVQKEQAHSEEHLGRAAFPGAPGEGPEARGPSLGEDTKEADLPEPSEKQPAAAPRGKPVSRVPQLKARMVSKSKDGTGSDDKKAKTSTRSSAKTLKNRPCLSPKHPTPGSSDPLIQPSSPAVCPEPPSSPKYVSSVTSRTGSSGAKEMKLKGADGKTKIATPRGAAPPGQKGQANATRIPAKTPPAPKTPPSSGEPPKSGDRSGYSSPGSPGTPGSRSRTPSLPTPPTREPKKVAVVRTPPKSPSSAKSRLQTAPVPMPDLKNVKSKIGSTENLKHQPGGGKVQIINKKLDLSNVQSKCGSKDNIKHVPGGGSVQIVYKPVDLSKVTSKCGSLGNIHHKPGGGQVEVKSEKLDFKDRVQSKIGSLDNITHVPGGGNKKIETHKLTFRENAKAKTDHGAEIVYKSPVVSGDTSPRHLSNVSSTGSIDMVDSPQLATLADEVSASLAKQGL
T1 sequence (P56817 whole entry): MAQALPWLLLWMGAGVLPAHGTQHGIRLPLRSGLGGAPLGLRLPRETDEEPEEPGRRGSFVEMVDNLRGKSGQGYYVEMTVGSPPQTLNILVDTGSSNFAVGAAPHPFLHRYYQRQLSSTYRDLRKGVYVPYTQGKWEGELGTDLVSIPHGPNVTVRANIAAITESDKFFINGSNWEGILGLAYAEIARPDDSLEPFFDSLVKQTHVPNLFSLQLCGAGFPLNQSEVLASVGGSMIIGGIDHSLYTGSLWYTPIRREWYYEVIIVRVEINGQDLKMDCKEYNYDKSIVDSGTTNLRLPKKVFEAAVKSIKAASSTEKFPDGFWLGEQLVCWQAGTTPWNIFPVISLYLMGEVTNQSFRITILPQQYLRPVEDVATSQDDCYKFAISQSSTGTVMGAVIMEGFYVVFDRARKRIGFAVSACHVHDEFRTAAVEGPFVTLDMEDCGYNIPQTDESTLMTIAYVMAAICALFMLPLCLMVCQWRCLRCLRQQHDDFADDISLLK
Description for Acetylcholinesterase: Inhibition of human recombinant AChE using acetylthiocholine iodide as substrate preincubated for 20 mins by Ellman's method

With `CC1=C[C@H]2Cc3nc4cc(Cl)ccc4c(N)c3[C@@H](C1)C2.Cl`, the IC50 on Beta-secretase 1 [1] (read-out: IC50) was over 5000 nM. In [2], the inhibition turned out to be 13.2%. Further, in data set [3], the Papp came out at 25.4 ×10⁻⁶ cm/s.

For `CC1=C[C@@H]2Cc3nc4cc(Cl)ccc4c(N)c3[C@H](C1)C2`, the IC50 at Beta-secretase 1 [1] (read-out: IC50) is over 5000 nM. Further, the inhibition worked out at 11.5% in [2] and 14% against Beta-secretase 1 [4]. For the same molecule, in [3], the Papp turned out to be 23.6 ×10⁻⁶ cm/s.

As for `CC1=C[C@@H]2Cc3nc4cc(Cl)ccc4c(NCCCCCCCCCNC(=O)c4cc(O)c5c(c4)C(=O)c4cccc(O)c4C5=O)c3[C@H](C1)C2`, the inhibition in data set [2] came to 43.2%; in data set [5] it was 47.2%; in data set [6] it was 34.3%. Further, the outcome with Hippocampus [7], in the data set with Hippocampus [8], in the data set on Hippocampus [12], in the data set with Hippocampus [13] and with Mus musculus [17] was inactive. The outcome in the data set with Hippocampus [9], in the data set on Hippocampus [10], with Hippocampus [11], with Mus musculus [14], with Mus musculus [15] and in the data set with Mus musculus [16] was Active.

For the molecule `CC1=CC2Cc3nc4cc(Cl)ccc4c(NCCCCCCCCCCCNC(=O)c4cc(O)c5c(c4)C(=O)c4cccc(O)c4C5=O)c3C(C1)C2.Cl` (racemic), on Beta-secretase 1 [1] (read-out: IC50), the IC50 was found to be 1200 nM. Moreover, the inhibition is 35.3% in [2], 40.7% in [5] and 46.3% in data set [6]. Moreover, the Papp in [3] stood at 16.4 ×10⁻⁶ cm/s.

On to `CC1=C[C@H]2Cc3nc4cc(Cl)ccc4c(NCCCCCCCCCNC(=O)c4cc(O)c5c(c4)C(=O)c4cccc(O)c4C5=O)c3[C@@H](C1)C2.Cl`, for which the inhibition in data set [2] amounted to 38.4%; in data set [5], 58.6%; in data set [6], 24.9%. Further, the Activity with Hippocampus [7] and in the data set on Hippocampus [8] was 200% each time. Moreover, the result in the data set with Hippocampus [11] and with Hippocampus [13] was inactive. Further, the outcome in the data set with Hippocampus [12], in the data set on Hippocampus [18], with Hippocampus [19], with Mus musculus [14], in the data set with Mus musculus [15] and in the data set with Mus musculus [16] was Active.

`CC1=CC2Cc3nc4cc(Cl)ccc4c(NCCCCCCNC(=O)c4cc(O)c5c(c4)C(=O)c4cccc(O)c4C5=O)c3C(C1)C2` (racemic): the IC50 against Cholinesterase was determined as 1070 nM; at Acetylcholinesterase, 1.52 nM. Besides, on Beta-secretase 1 [20], the inhibition entry is “inactive”. The inhibition is 40.8% in data set [2], 68.4% in data set [5] and 30.9% in data set [6].

On to `CC1=CC2Cc3nc4cc(Cl)ccc4c(NCCCCCCCCCCNC(=O)c4cc(O)c5c(c4)C(=O)c4cccc(O)c4C5=O)c3C(C1)C2.Cl` (racemic), for which the IC50 at Beta-secretase 1 [1] (read-out: IC50) was 1190 nM. The inhibition in [2] was found to be 40.9%; in [5], 43.3%; in data set [6] it was 57.1%. Further, the Papp in data set [3] is 18.1 ×10⁻⁶ cm/s.

For the molecule `CC1=CC2Cc3nc4cc(Cl)ccc4c(NCCCCCCCNC(=O)c4cc(O)c5c(c4)C(=O)c4cccc(O)c4C5=O)c3C(C1)C2.Cl` (racemic), the IC50 at Cholinesterase turned out to be 1460 nM; against Acetylcholinesterase, 3.18 nM. In addition, the inhibition result on Beta-secretase 1 [20] is “inactive”. Moreover, the inhibition in data set [2] came to 40.6%; in [5], 63.2%; in data set [6], 52%. Further, the Papp in data set [3] worked out at 27.5 ×10⁻⁶ cm/s.

`CC1=CC2Cc3nc4cc(Cl)ccc4c(NCCCCCNC(=O)c4cc(O)c5c(c4)C(=O)c4cccc(O)c4C5=O)c3C(C1)C2.Cl` (racemic): the half-maximal inhibitory concentration (IC50) was found to be 950 nM against Cholinesterase and 1.07 nM at Acetylcholinesterase. Besides, on Beta-secretase 1 [20], the inhibition entry was “inactive”. For the same molecule, the inhibition in [2] was found to be 38.7%; in data set [5], 68%; in data set [6], 43.7%. In addition, in data set [3], the Papp came out at 20 ×10⁻⁶ cm/s.

In the case of `CC1=CC2Cc3nc4cc(Cl)ccc4c(NCCCCCCCCNC(=O)c4cc(O)c5c(c4)C(=O)c4cccc(O)c4C5=O)c3C(C1)C2.Cl` (racemic), the IC50 at Beta-secretase 1 [1] (read-out: IC50) is 980 nM. The figures for the inhibition in data set [2], in [5] and in [6] were 33.1%, 50.2% and 29.2%, respectively. For the same molecule, the Papp in data set [3] was determined as 22.4 ×10⁻⁶ cm/s.

Take `CC1=CC2Cc3nc4cc(Cl)ccc4c(NCc4ccc(CNC(=O)c5cc(O)c6c(c5)C(=O)c5cccc(O)c5C6=O)cc4)c3C(C1)C2.Cl` (racemic): at Beta-secretase 1 [1] (read-out: IC50), the IC50 was found to be 2020 nM. Further, the values for the inhibition in [2], in [5] and in data set [6] were 32.4%, 57.9% and 23.1%, respectively. For the same molecule, the Papp in [3] turned out to be 16.3 ×10⁻⁶ cm/s.

Regarding `CC1=CC2Cc3nc4cc(Cl)ccc4c(N)c3C(C1)C2.Cl` (racemic), the inhibition result in data set [5] and in data set [6] was “inactive” each time.

As for `O=C(O)c1cc(O)c2c(c1)C(=O)c1cccc(O)c1C2=O` [RHEIN], the IC50 result on Beta-secretase 1 [1] was “Not Active”; on Acetylcholinesterase it was over 10000 nM. Also, in data set [3], the Papp was 2.7 ×10⁻⁶ cm/s. Further, the inhibition stood at 49.9% in data set [5] and 40.8% in data set [6].

`CC1=CC2Cc3nc4cc(Cl)ccc4c(NCCCCCCCCCNC(=O)c4cc(O)c5c(c4)C(=O)c4cccc(O)c4C5=O)c3C(C1)C2.Cl` (racemic): at Beta-secretase 1 [1] (read-out: IC50), the IC50 worked out at 120 nM. The figures for the inhibition in data set [2], in data set [5] and in data set [6] were 38%, 47.9% and 29.6%, respectively. For the same molecule, the Papp in data set [3] was 21.5 ×10⁻⁶ cm/s.
